# Measured values taken from patent US6835401B2, “Method of treating diseases caused by over-production of free-radicals” (Pharmaton SA, priority 2000, dated 2004).
# System: glutathione peroxidase (GSH-PX)
# Assay: Glutathione peroxidase (GSH-PX) activity in keratinocytes
# Type: cell-based, human
# Settings: 50 nM Se (sodium selenite 50 nM; selenium yeast 3.95 μg/ml), control cells
# Procedure: Cultures were maintained at 37° C. in a humidified 5% CO2 atmosphere.
smiles,measurement,setting,value
O=[Se](O)O [sodium selenite],GSH-PX activity,,91.44±10.37 mU/mg protein
same,"induction of GSH-PX activity, fold increase vs controls",48 h,3.365 fold
